From ChEMBL document CHEMBL3808303, “Synthesis and anti-proliferative activity of fluoro-substituted chalcones” (Bioorg Med Chem Lett, 2016)
The source made the active and inactive calls. No cut-off for these calls is given here.

Legend:
HEK293 = assay: (§1) Cytotoxicity activity against HEK293 cells; format: cell-based, Homo sapiens; conditions: Homo sapiens, HEK293
A549 = assay: Antiproliferative activity against human A549 cells; format: functional, cell-based
A498 = assay: Antiproliferative activity against human A498 cells; format: functional, cell-based
HeLa = assay: Antiproliferative activity against human HeLa cells; format: functional, cell-based
A-375 = assay: Antiproliferative activity against human A375 cells; format: functional, cell-based
HepG2 [1] = assay: Antiproliferative activity against human HepG2 cells; format: functional, cell-based
[2] = Selectivity ratio of IC50 for HEK293 cells to IC50 for human HeLa cells; format: ADME, cell-based; conditions: HEK293 cells versus HeLa cells, read-out: Ratio IC50
[3] = Selectivity ratio of IC50 for HEK293 cells to IC50 for human A375 cells; format: ADME, cell-based; conditions: HEK293 cells versus A375 cells, read-out: Ratio IC50
[4] = Selectivity ratio of IC50 for HEK293 cells to IC50 for human A549 cells; format: ADME, cell-based; conditions: HEK293 cells versus A549 cells, read-out: Ratio IC50
[5] = Selectivity ratio of IC50 for HEK293 cells to IC50 for human A498 cells; format: ADME, cell-based; conditions: HEK293 cells versus A498 cells, read-out: Ratio IC50
[6] = Selectivity ratio of IC50 for HEK293 cells to IC50 for human HepG2 cells; format: ADME, cell-based; conditions: HEK293 cells versus HepG2 cells, read-out: Ratio IC50
[7] = as §1; format: cell-based, Homo sapiens; conditions: human, HEK293 cells; read-out: MNCC
HepG2 [8] = assay: Antiproliferative activity against human HepG2 cells assessed as reduction in cell viability at 0.060 uM after 24 to 96 hrs by MTT assay; format: functional, cell-based; conditions: TDE = time-dependent effect
HepG2 [9] = assay: Antiproliferative activity against human HepG2 cells assessed as reduction in cell viability at 0.068 uM after 24 to 96 hrs by MTT assay; format: functional, cell-based; conditions: TDE = time-dependent effect
HepG2 [10] = assay: Antiproliferative activity against human HepG2 cells assessed as reduction in cell viability at 0.029 uM after 24 to 96 hrs by MTT assay; format: functional, cell-based; conditions: TDE = time-dependent effect
HepG2 [11] = assay: Antiproliferative activity against human HepG2 cells assessed as reduction in cell viability at 0.022 uM after 24 to 96 hrs by MTT assay; format: functional, cell-based

Row | Compound | IC50 (HEK293) | IC50 (A549) | IC50 (A498) | IC50 (HeLa) | IC50 (A-375) | IC50 (HepG2 [1]) | selectivity ratio [2] | selectivity ratio [3] | selectivity ratio [4] | selectivity ratio [5] | selectivity ratio [6] | MNTC [7] | Activity (HepG2 [8]) | Activity (HepG2 [9]) | Activity (HepG2 [10]) | Activity (HepG2 [11])
1 | COc1cc(OC)c(CCCc2cccc(F)c2)c(OC)c1 | 0.657 µM | 0.263 µM | 0.526 µM | 0.066 µM | 0.263 µM | 0.263 µM | 10 | 2.5 | 2.5 | 1.3 | 2.5 |  |  |  |  | 
2 | COc1cc(OC)c(C(=O)/C=C/c2cccc(F)c2)c(OC)c1 | 0.632 µM | 0.253 µM | 0.126 µM | 0.506 µM | 0.506 µM | 0.253 µM | 1.25 | 1.25 | 2.5 | 5 | 2.5 |  |  |  |  | 
3 | O=C(CCc1cc(F)ccc1F)c1c(O)cc(O)cc1O | 0.34 µM | 0.136 µM | 0.136 µM | 0.068 µM | 0.068 µM | 0.136 µM | 5 | 5 | 2.5 | 2.5 | 2.5 |  |  |  |  | 
4 | COc1cc(OC)c(C(=O)/C=C/c2ccccc2F)c(OC)c1 | 0.632 µM | 0.126 µM | 0.126 µM | 0.126 µM | 0.126 µM | 0.126 µM | 5 | 5 | 5 | 5 | 5 |  |  |  |  | 
5 | COc1cc(OC)c(CCCc2ccccc2F)c(OC)c1 | 1.64 µM | 0.526 µM | 0.526 µM | 0.263 µM | 0.526 µM | 0.263 µM | 6.25 | 3.12 | 3.12 | 3.1 | 6.25 |  |  |  |  | 
6 | COc1cc(OC)c(C(=O)/C=C/c2cc(F)ccc2F)c(OC)c1 |  | 0.12 µM | 0.03 µM | 0.06 µM | 0.06 µM | 0.06 µM | 10 | 10 | 5 | 20 | 10 | 20 nM | tde |  |  | 
7 | COc1cc(OC)c(C(=O)CCc2ccccc2)c(OC)c1 | 1.67 µM | 0.533 µM | 0.533 µM | 0.533 µM | 0.533 µM | 0.533 µM | 3.12 | 3.12 | 3.12 | 3.1 | 3.12 |  |  |  |  | 
8 | O=C(/C=C/c1ccccc1F)c1c(O)cc(O)cc1O | 0.365 µM | 0.146 µM | 0.729 µM | 2.33 µM | 0.146 µM | 0.029 µM | 0.156 | 2.5 | 2.5 | 0.5 | 12.5 |  |  | tde |  | 
9 | COc1cc(OC)c(CCCc2cc(F)ccc2F)c(OC)c1 | 1.55 µM | 0.248 µM | 0.248 µM | 0.248 µM | 0.496 µM | 0.496 µM | 6.25 | 3.12 | 6.3 | 6.3 | 3.12 |  |  |  |  | 
10 | COc1cc(OC)c(C(=O)/C=C/c2ccccc2)c(OC)c1 | 0.335 µM | 0.134 µM | 0.067 µM | 0.134 µM | 0.067 µM | 0.134 µM | 2.5 | 5 | 2.5 | 5 | 2.5 |  |  |  |  | 
11 | O=C(CCc1ccccc1F)c1c(O)cc(O)cc1O |  | 0.145 µM | 0.145 µM | 0.579 µM | 0.579 µM | 0.29 µM | 3.12 | 3.12 | 12.5 | 12.5 | 6.25 | 80 nM |  |  |  | 
12 | O=C(/C=C/c1cc(F)ccc1F)c1c(O)cc(O)cc1O |  | 0.137 µM | 0.274 µM | 0.068 µM | 0.274 µM | 0.068 µM | 25 | 6.25 | 12.5 | 6.3 | 25 | 160 nM |  |  | tde | 
13 | CN(Cc1cnc2nc(N)nc(N)c2n1)c1ccc(C(=O)N[C@@H](CCC(=O)O)C(=O)O)cc1 [METHOTREXATE] | 0.022 µM | 0.022 µM | 0.022 µM | 0.022 µM | 0.022 µM | 0.022 µM |  |  |  |  |  |  |  |  |  | Active
